In patent US8512748B2, “Controlled release system and method for manufacturing the same” (Boehringer Ingelheim International GmbH, priority 2006, dated 2013) one finds solubility and aqueous solubility data, which are given here for 1 compound.

The structures appear in SMILES notation.

This series is described as follows: pH-dependent aqueous solubility of the active ingredient. The series is classed as physicochemical.

On to `O=c1[nH]c2ccccc2n1CCN1CCN(c2cccc(C(F)(F)F)c2)CC1` [active ingredient, 1-[2-(4-(3-trifluoromethyl-phenyl)piperazin-1-yl)ethyl]-2,3-dihydro-1H-benzimidazol-2-one], for which, for the setting “pH 2”, the solubility result is listed as “good solubility”. For the same compound, the aqueous solubility entry (pH values 5.5-6.8) was “poor”.
